Results as given in BindingDB's records for doi:10.1021/jm9603072 (University of Paris, 1997).

Biological target: Gastrin/cholecystokinin type B receptor (Cavia porcellus)
Test: Inhibition of [3H]pCCK-8 binding to Guinea pig cortex membrane Cholecystokinin type B receptor

C[C@]1(Cc2c[nH]c3ccccc23)NC(=O)CCCCSSCC[C@@H](C(=O)N[C@@H](CC(=O)O)C(=O)N[C@@H](Cc2ccccc2)C(N)=O)NC1=O [N-(1-Carbamoyl-2-phenyl-ethyl)-3-{[(5R,8R)-8-(1H-indol-3-ylmethyl)-8-methyl-7,10-dioxo-1,2-dithia-6,9-diaza-cyclotetradecane-5-carbonyl]-amino}-succinamic acid]
Ki: 51 nM
